The text below walks through data of US5407961A, “α-substituted benzenemethanamine derivatives and pharmaceutical use” (Janssen Pharmaceutica N.V., priority 1991, dated 1995).

One data set relates to HIV-1. The data set is described as follows: in-vitro anti-HIV assay: inhibition of the HIV-induced cytopathic effect in HIV-infected MT-4 cells (MTT). The data set is classed as cell-based, Human Immunodeficiency Virus. The conditions noted are these: for SI (selectivity index): ratio of CD50 to ED50. As to the method: (§1) A rapid, sensitive and automated assay procedure was used for the in-vitro evaluation of anti-HIV agents. An […] T4-cell line, MT-4, which was previously shown (Koyanagi et al., Int. J. Cancer, 36, 445-451, 1985) to be highly susceptible to and permissive for HIV infection, served as the target cell line. Inhibition of the HIV-induced cytopathic effect was used as the end point. The viability of both HIV- and mock-infected cells was assessed spectrophotometrically via the in-situ reduction of 3-(4,5-dimethylthiazol-2-yl)-2,5-diphenyltetrazolium bromide (MTT). The 50% cytotoxic dose (CD50 in μg/ml) was defined as the concentration of compound that reduced the absorbance of the mock-infectedcontrol sample by 50%. The percent protection achieved by the compound in HIV-infected cells was calculated by the following formula: [formula] whereby (ODT)HIV is the optical density measured with a given concentration of the test compound in HIV-infected cells; (ODC)HIV is the optical density measured for the control untreated HIV-infected cells; (ODC)MOCK is the optical density measured for the control untreated mock-infected cells; all optical density values were determined at 540 nm. The dose achieving 50% protection according to the above formula was defined as the 50% effective dose (ED50 in μg/ml). The ratio of CD50 to ED50 was defined as the selectivity index (SI).
(Protection from cytopathic effect is a common read-out in antiviral testing.)

The next data set in a line: in vitro. The data set is classed as cell-based. The conditions noted are these: human, mt-4 cells. As to the method:
as §1

Where [1] appears, read: Human immunodeficiency virus 1, MT4, dose achieving 50% protection in HIV-infected MT-4 cells, MTT, 540 nm, read-out: ED50 (50% effective dose).

For orientation: CC50 means the concentration giving 50% cytotoxicity. Read a low CC50 as greater toxicity to the cells.

≈ marks a conversion by molar mass, not a printed value. Read-outs that look alike come from different tables or passages of the source.

Turning to `NC(=O)C(Nc1cc(Cl)cc2c1OCC2)c1c(Cl)cccc1Cl` (stereo not drawn) [Compound 6], the EC50 with HIV-1 (setting [1]) came out at 0.079 µg/mL (≈ 0.213 µM). In the data set on HIV-1, the “SI (selectivity index)” value was determined as 11. Moreover, half-maximal cytotoxicity in “in vitro” (CC50) was put at 0.87 µg/mL (≈ 2.34 µM).
On the same counts, the results for `CC(=O)c1ccccc1NC(C)c1c(Cl)cccc1Cl` (racemic) [Compound 10, (±)-1-[2-[[1-(2,6-dichlorophenyl)ethyl]amino]phenyl]ethanone] are 0.022 µg/mL (≈ 0.0714 µM), 227 and 5 µg/mL (≈ 16.2 µM).
`O=[N+]([O-])c1ccccc1NC(CO)c1c(Cl)cccc1Cl` (racemic) [Compound 12, (±)-2,6-dichloro-β-(2-nitrophenyl)amino]benzeneethanol]: the EC50 in the data set on HIV-1 (setting [1]) was found to be 0.18 µg/mL (≈ 0.55 µM). Besides, in the data set with HIV-1, the “SI (selectivity index)” value came out at 25. This compound registered a CC50 in the data set “in vitro” of 4.3 µg/mL (≈ 13.1 µM).
Regarding `NC(=O)C(Nc1cccc2c1C(=O)CO2)c1c(Cl)cccc1Cl` (racemic) [Compound 9, (±)-2,6-dichloro-α-[(2,3-dihydro-3-oxo-4-benzofuranyl)amino]benzeneacetamide], in the data set with HIV-1 (setting [1]), the EC50 was 0.12 µg/mL (≈ 0.342 µM). The “SI (selectivity index)” value in the data set with HIV-1 came to 1405. In “in vitro”, this compound yielded a CC50 of 169 µg/mL (≈ 480 µM).
As for `CC(=O)c1ccccc1NC(c1c(Cl)cccc1Cl)C1CC1` (racemic) [Compound 14, (±)-1-[2-[[cyclopropyl-(2,6-dichlorophenyl)methyl]amino]phenyl]ethanone], the EC50 in the data set on HIV-1 (setting [1]) stood at 0.15 µg/mL (≈ 0.449 µM). In the data set on HIV-1, the “SI (selectivity index)” value came out at 27. For the same compound, the CC50 in “in vitro” stood at 4.1 µg/mL (≈ 12.3 µM).
Regarding `NC(=O)C(Nc1cccc2ccc[n+]([O-])c12)c1c(Cl)cccc1Cl` (stereo not drawn) [Compound 7], in the data set on HIV-1 (Human immunodeficiency virus 1, MT4, read-out: ED50 (50% effective dose)), the EC50 was found to be 0.047 µg/mL (≈ 0.13 µM). Further, the “SI (selectivity index)” value in the data set on HIV-1 was 3255. The CC50 in the data set “in vitro” worked out at 53 µg/mL (≈ 146 µM).
Regarding `CC(Nc1ccccc1[N+](=O)[O-])c1c(Cl)cccc1Cl` (stereo not drawn) [Compound 13, 2,6-dichloro-α-methyl-N-(2-nitrophenyl)benzenemethanamine], the EC50 in the data set on HIV-1 (setting [1]) came out at 0.021 µg/mL (≈ 0.0675 µM). The “SI (selectivity index)” value with HIV-1 was found to be 6. In “in vitro”, this compound showed a CC50 of 0.13 µg/mL (≈ 0.418 µM).
The corresponding values for `CC(=O)c1cc2c(cc1NC(C(N)=O)c1c(Cl)cccc1Cl)CCC2` (stereo not drawn) [Compound 5] are 0.2 µg/mL (≈ 0.53 µM), 50 and 10 µg/mL (≈ 26.5 µM).
Turning to `CCC(Nc1ccccc1C(C)=O)c1c(Cl)cccc1Cl` (stereo not drawn) [Compound 11, 1-[2-[[1-(2,6-dichlorophenyl)propyl]amino]phenyl]ethanone], in the data set with HIV-1 (setting [1]), the EC50 is 0.52 µg/mL (≈ 1.61 µM). The “SI (selectivity index)” value with HIV-1 was 13. In addition, the CC50 in “in vitro” was 6.9 µg/mL (≈ 21.4 µM).
For `Cc1cc2c(c(NC(C(N)=O)c3c(Cl)cccc3Cl)c1)C(=O)CC2` (racemic) [Compound 1, (±)-2,6-dichloro-α-[(2,3-dihydro-6-methyl-3-oxo-1H-inden-4-yl)amino]benzene-acetamide], the EC50 with HIV-1 (setting [1]) was 0.0038 µg/mL (≈ 0.0105 µM). In addition, the “SI (selectivity index)” value in the data set with HIV-1 came to 54560. Further, the CC50 in “in vitro” turned out to be 207 µg/mL (≈ 570 µM).
